From patent US10934351B2, “Cancer stem cell-specific molecule” (CHUGAI SEIYAKU KABUSHIKI KAISHA, priority 2011, dated 2021)

Columns and labels:
[1] = tested on: Lgr5-positive large intestine CSCs; experiment: Cell proliferation / chemosensitivity assay (Cell Counting Kit-8), adherent CSCs; type: cell-based, human
Description: (§1) Floating and adherent CSCs were plated at about 100 and 1×10^4 cells/well in 96-well plates, respectively. On days 0 and 3, viable cell counts were determined by the Cell Counting Kit-8 Assay (Doujindo) according to the manufacturer's protocol. Average absorbance on day 0 was taken as 100%. For chemosensitivity assay, floating and adherent CSCs were plated at about 100 and 1×10^4 cells/well in 96-well plates, respectively. […] After three days of culture in the presence of the agents, the Cell Counting Kit-8 was added to the cells. The average absorbance of cells exposed to DMSO or medium alone was taken as 100%. All experiments were performed in triplicate.

[2] = tested on: Lgr5-negative large intestine CSCs; experiment: Cell proliferation / chemosensitivity assay (Cell Counting Kit-8), Lgr5-negative CSCs; type: cell-based, human; settings: for proliferation and survival of Lgr5-negative large intestine CSCs: 10 μg/ml, three days (FIGS. 10 and 24); for percentage of viable cells relative to non-treated control cells: Lgr5-negative CSCs (PLR59 and PLR123), three days, concentration series (FIG. 47)
Description: as §1

[3] = tested on: Lgr5-positive large intestine CSCs; experiment: Change in Lgr5 expression of Lgr5-positive CSCs after chemotherapeutic treatment (flow cytometry / immunocytochemistry); type: cell-based, human; settings: for Lgr5 state of drug-resistant cells arising from Lgr5-positive CSCs: three-day exposure, 10 μg/ml (FIGS. 11, 32, 25)
Description: Large intestine CSCs were incubated with mouse anti-human Lgr5 antibody (2T15E-2) and then with […] rat anti-mouse IgG antibody (Invitrogen) to stain Lgr5. The aldehyde dehydrogenase activity was measured using the AldeFluor Kit (Stemcell Technologies). Mouse cells were discriminated from human large intestine CSCs by staining with anti-mouse MHC class I antibody (Abcam), and PE- or APC-labeled goat […] IgG2a antibody (BioLegend). Dead cells were also removed using the 7-AAD Viability Dye (Beckman Coulter).
In addition, to assess whether Lgr5-negative large intestine CSCs undergo a transition into an Lgr5-positive state, the present inventors cultured adherently Lgr5-negative large intestine CSCs prepared via irinotecan treatment again in a serum-free stem cell culture medium. […] On the other hand, when Lgr5-positive adherent large intestine CSCs were cultured in an ultra-low adherent plate, the present inventors observed that some of the cells halted their growth and formed a spheroid-like structure and that the Lgr5 mRNA level was very low (FIGS. 12 and 33). The transition from the Lgr5-positive to Lgr5-negative state (and the reverse) was also confirmed by observations using a single cell in culture. […]
Using a stem cell medium, Lgr5-positive adherent cells were seeded at 3×10^5 cells/well in a 6-well plate (BD, Cat. No. 353046). […] After three-day culture, irinotecan-resistant cells were detected. […]
FITC-labeled mouse mAb to human CD326 (EpCAM), PE-labeled mouse mAb to human CD133/1 (AC133), PE-labeled mouse mAb to human CD44, PE-labeled mouse mAb to human CD166, PE-labeled mouse mAb to human CD24, PE-labeled mouse mAb to human CD26, or PE-labeled mouse mAb to human CD29. […] The ALDH activity was detected using AldeFluor Kit according to the procedure recommended by the manufacturer. […] Cells negative for 7-AAD Viability Dye were analyzed for cancer stem cell markers.

[4] = tested on: tumors derived from Lgr5-positive CSCs (PLR123); experiment: Irinotecan treatment of NOG mice bearing tumors derived from Lgr5-positive CSCs; type: in vivo
Description: Mice bearing tumors derived from Lgr5-positive CSCs (PLR123) were treated with irinotecan, and their tumors were observed. Irinotecan or vehicle was administered to mice at days 12, 15, and 18 after tumor grafting. Scale bar represents 25 μm.
FIG. 55 Irinotecan was administered at a dose of 120 mg/kg/day to NOG mice at days 12, 15, and 18 after grafting tumors derived from Lgr5-positive CSCs (PLR123). This figure is a graph showing tumor volumes in control mice administered with vehicle (closed diamond) and mice administered with irinotecan (closed square or triangle). Each value represents mean+standard deviation.
FIG. 56 is a graph showing the numbers of Lgr5-positive and HLA-DMA-positive cells in xenograft tumor tissues. Thin sections of tissues were treated with Lgr5 antibody and HLA-DMA antibody, and then the numbers of Lgr5-positive and HLA-DMA-positive cells were measured. Values represent the total numbers of cells counted for respective groups (n=3).
To probe the possibility of in vivo transition to a growth inhibitor-resistant state, irinotecan was administered at the maximum tolerated dose (MTD) (120 mg/kg) into the peritoneal cavities of NOG mice bearing tumors derived from Lgr5-positive CSCs. […] By contrast, in vehicle-treated control mice, about one third of cancer cells were positive for Lgr5 in both ductal and budding areas (FIG. 54). Both Lgr5-positive cells and HLA-DMA-positive and Lgr5-negative cells were positive for EREG, and were identified to be CSCs (FIG. 54). After irinotecan treatment, Lgr5-positive cells appeared again (FIG. 54).

[5] = tested on: irinotecan-non-treated PLR123; experiment: Internalization activity / anti-tumor effect with Mab-ZAP or Rat-ZAP (CellTiter-Glo); type: cell-based, human; settings: with Mab-ZAP or Rat-ZAP 1 μg/ml, 72 hours
Description: (§2) Mab-ZAP and Rat-ZAP are anti-mouse IgG antibody and anti-rat IgG antibody, respectively, conjugated with saporin, a toxin that inhibits protein synthesis (Advanced Targeting Systems). To assess the activity of internalization into irinotecan-non-treated cells, PLR59 and PLR123 cells were seeded at a cell density of 30000 cells/80 μl/well to respective wells of a 96-well plate. Following day, each antibody solution was added at a final concentration of 0.01, 0.1, or 1 μg/ml to the respective wells. Then, Mab-ZAP or Rat-ZAP was added at a final concentration 1 μg/ml to the respective wells, and the plate was incubated at 37° C. for 72 hours in a CO2 incubator. To assess the activity of internalization into irinotecan-treated cells, PLR59 and PLR123 cells were seeded in a 96-well plate, and irinotecan was added at a final concentration of 15 μM to each well. The plate was incubated at 37° C. for 72 hours in a CO2 incubator. Various antibodies were assessed for the activity of internalization to cells cultured as described above in the presence or absence of irinotecan. For assay, the various antibodies were each assessed for the internalization activity into cells contained in each well where the medium was replaced with the same irinotecan-free medium as used for irinotecan-non-treated cells. Seventy-two hours after addition of antibodies and Mab-ZAP or Rat-ZAP, 10 μl of 3% SDS (Nacalai Tesque) was added to each well of the plate. The cells in the plate were lysed thoroughly by stirring the plate using a plate mixer. Then, 100 μl of CellTiter-Glo™ Luminescent Cell Viability Assay (Promega) was added to each well. The mixture in each well was assayed to determine its luminescent signal. […] In Table 14, symbols, −, +, ++, and +++, represent relative values for the internalization activity when a test antibody was assayed at a concentration of […]. […] Symbols, −, +, ++, and +++, indicate that the relative value is less than 5%, 5% or more and less than 15%, 15% or more and less than 25%, and 25% or more, respectively.

[6] = tested on: irinotecan-non-treated PLR59; experiment: as above; type: cell-based, human; settings: with Mab-ZAP or Rat-ZAP 1 μg/ml, 72 hours
Description: as §2

[7] = tested on: irinotecan-non-treated PLR123; experiment: Flow cytometry (FCM) binding activity of commercially available antibodies to cell-surface antigens; design: species or system human; settings: with antibody
Description: (§3) The present inventors tested whether an anti-tumor effect can be expected with target therapy using a membrane protein expressed at a high level as the target in irinotecan-treated or non-treated PLR59 and PLR123. Commercially available antibodies shown in Table 12 were assessed by flow cytometry (FCM) for the binding activity to antigens expressed on the cell surface of irinotecan-treated or non-treated PLR59 or PLR123.

[8] = tested on: irinotecan-non-treated PLR59; experiment: as above; design: species or system human; settings: with antibody
Description: as §3

[9] = 10 μg/ml, three days (FIGS. 10 and 24)
[10] = 120 mg/kg irinotecan (FIGS. 54 and 56)

| Molecule | proliferation of Lgr5-positive large intestine CSCs [1, 9] | proliferation and survival of Lgr5-negative large intestine CSCs [2] | percentage of viable cells relative to non-treated control cells [2] | Lgr5 state of drug-resistant cells arising from Lgr5-positive CSCs [3] | internalization activity level [5] | internalization activity level [6] | binding activity by flow cytometry (FCM), Antibody + [7] | binding activity by flow cytometry (FCM), Antibody + [8] | other results |
| --- | --- | --- | --- | --- | --- | --- | --- | --- | --- |
| O=c1[nH]cc(F)c(=O)[nH]1 [5-FU, fluorouracil] | significantly inhibited | did not affect | fully resistant | negative for Lgr5 | – | – | – | – | – |
| Cc1cc([N+](=O)[O-])ccc1NS(=O)(=O)c1cc(Cl)ccc1Cl [FH535] | – | – | – | – | – | – | – | – | proliferation of Lgr5-positive large intestine CSCs ([1]; 50 μM, three days of culture, PLR59 and PLR123 (FIGS. 8 and 22)): significantly reduced; proliferation of Lgr5-negative large intestine CSCs ([2]; 50 μM, three days of culture (FIGS. 8 and 22)): had no effect |
| COc1cc(O)cc(O)c1C(=O)/C=C/c1ccccc1 [cardamonin] | – | – | – | – | – | – | – | – | viable cell count ([1]; 50 μM, three days of culture, Lgr5-positive CSCs (FIGS. 8 and 22)): 70%; viable cell count ([2]; 50 μM, three days of culture, Lgr5-negative CSCs (FIGS. 8 and 22)): about 50% |
| CCc1c2c(nc3ccc(OC(=O)N4CCC(N5CCCCC5)CC4)cc13)-c1cc3c(c(=O)n1C2)COC(=O)[C@]3(O)CC [irinotecan] | significantly inhibited | did not affect | fully resistant | negative for Lgr5 | – | – | – | – | transition of single Lgr5-positive cells into the Lgr5-negative state ([3]; single cells cultured in multi-well plate, irinotecan treatment, within three days (FIG. 49, Table 5)): underwent a transition into the Lgr5-negative state; tumor growth ([4]; 120 mg/kg (MTD) into the peritoneal cavities, days 12, 15, 18 after grafting (FIG. 55)): inhibited almost completely; Lgr5-positive cells in tumor [4, 10]: dramatic decrease; number of Lgr5-negative and HLA-DMA-positive cells in tumor [4, 10]: increased significantly |
| EDAR (protein, listed as Homo sapiens) MAHVGDCTQTPWLPVLVVSLMCSARAEYSNCGENEYYNQTTGLCQECPPCGPGEEPYLSCGYGTKDEDYGCVPCPAEKFSKGGYQICRRHKDCEGFFRATVLTPGDMENDAECGPCLPGYYMLENRPRNIYGMVCYSCLLAPPNTKECVGATSGASANFPGTSGSSTLSPFQHAHKELSGQGHLATALIIAMSTIFIMAIAIVLIIMFYILKTKPSAPACCTSHPGKSVEAQVSKDEEKKEAPDNVVMFSEKDEFEKLTATPAKPTKSENDASSENEQLLSRSVDSDEEPAPDKQGSPELCLLSLVHLAREKSATSNKSAGIQSRRKKILDVYANVCGVVEGLSPTELPFDCLEKTSRMLSSTYNSEKAVVKTWRHLAESFGLKRDEIGGMTDGMQLFDRISTAGYSIPELLTKLVQIERLDAVESLCADILEWAGVVPPASQPHAAS | – | – | – | – | − (less than 5%) | ++ (15% or more and less than 25%) | 61 | 37 | – |
| CD70 (protein, listed as Homo sapiens) MPEEGSGCSVRRRPYGCVLRAALVPLVAGLVICLVVCIQRFAQAQQQLPLESLGWDVAELQLNHTGPQQDPRLYWQGGPALGRSFLHGPELDKGQLRIHRDGIYMVHIQVTLAICSSTTASRHHPTTLAVGICSPASRSISLLRLSFHQGCTIASQRLTPLARGDTLCTNLTGTLLPSRNTDETFFGVQWVRP | – | – | – | – | +++ (25% or more) | +++ (25% or more) | 1843 | 1177 | – |
